According to patent US20060128628A1, “Human tissue antigen-binding peptides and their amino acid sequences” (priority 2004, published 2006):

Assays:
[1] = biological target: T1, human tissue antigen 0201 (HLA-A0201) (Homo sapiens, UniProt P04439, D140Y/D185E/D98H/E176V/E277Q/G131W/G231S/I119V/I121R/I166T/I218V/L300P/L318F/N151K/N90K/P208A/P217A/Q86G/Q94H/R138H/R169H/T345S); type: cell-based
T1 construct: T2 cell line is a cell line lacking of the transporters associated with antigen processing (TAP), TAP1 and TAP2; endogenous in cells; host or cells: T2 cell line (TAP1/TAP2-deficient)

[2] = tested on: spleen lymphocytes expressing simultaneously CD8+ and IFN-γ+; set-up: species or system C57BL/6 mice transgenic for human tissue antigen 0201; details: in vivo

Row | Sequence | binding to human tissue antigen 0201 on T2 cells (HLA-A2 expression, median fluorescence intensity) [1] | relative binding ability among peptides S1-S10 in the T2 cell binding test [1] | induction of antigen-specific cytotoxicity (lymphocytes expressing simultaneously CD8+ and IFN-γ+) [2] | induction of cytotoxicity by vaccine containing peptide (proportion of spleen lymphocytes expressing CD8+ and IFN-γ+) [2]
1 | ILPDPLKPT [S6] | could bind to the human tissue antigen 0201 | strongest binding ability | could induce cytotoxicity | could induce cytotoxicity
2 | NLNESLIDL [S1] | could bind to the human tissue antigen 0201 | – | – | –
3 | VLNDILSRL [S4] | could bind to the human tissue antigen 0201 | – | – | –
4 | VLYENQKQI [S5] | could bind to the human tissue antigen 0201 | – | – | –
5 | VVFLHVTYV [S2] | could bind to the human tissue antigen 0201 | strongest binding ability | could induce cytotoxicity | could induce cytotoxicity
